# Reference: patent US12599625B2, “Treatment of ARDS and other conditions caused by acutely elevated cytokine levels and post ARDS chronic cytokine production using inhaled anesthetics” (priority 2021, dated 2026)
# Tested on: substance P
# Test: Clinical observation: relief of symptoms caused by acute and chronic excessive substance P
# Assay type: in vivo, human
structure (smiles),measurement,setting,value
[N-]=[N+]=O [nitrous oxide],relief of symptoms of COVID-19 and asthma,about 20 minutes of nitrous oxide every about 4-6 hours,may be relieved
same,relief of symptoms of COPD and asthma,nitrous oxide every about 4-6 hours,ray be relived
